What all share (format): cell-based
Data set [1] deals with Acinetobacter baumannii ATCC 19606. Kind of data set: Minimum Inhibitory Concentration (MIC) in LB media. The conditions noted are these: ATCC19606. Here is the method:
(§1) Biological Activity (Antibacterial activity): The compounds of Formula (I) are of interest due to their potent antibacterial effects. […] The medium sterility is checked by incubating at 37° C. for a period of 48 h. Bacterial cultures that are stored as glycerol stocks at -80° C. are sub cultured on LB agar plates to obtain isolated colonies. A single colony of each strain is cultured in LB broth. The cultures are incubated at 37° C., 200 rpm till they reach an optical density (OD at 600 nm) of 0.8 to 1. […] Test compounds are dissolved in dimethyl sulfoxide (DMSO) to a stock concentration of 4 mg/mi. A twofold dilution series of this DMSO stock is prepared in a 96 well V bottom microtitre plate from rows A to H. A 3 μL volume of these dilutions are transferred to a 96-well flat bottom microtitre assay plate. Controls to monitor the effects of DMSO and media sterility are included. Each well is inoculated with 150 μL of the above diluted culture. The plates are incubated at 37° C. overnight in a humidified incubator. The following morning, the plates are read using a Spectrophotometer at 600 nm wavelength.

Data set [2] deals with Pseudomonas aeruginosa ATCC 27853. Kind of data set: Minimum Inhibitory Concentration (MIC) in LB media. The conditions noted are these: ATCC27853, read-out: Minimum Inhibitory Concentration P. aurigenosa ATCC 27853. The method, then: as §1
Data set [3] concerns Staphylococcus aureus ATCC 29213. Kind of data set: Minimum Inhibitory Concentration (MIC) in LB media. Conditions: ATCC29213, read-out: Minimum Inhibitory Concentration S. aureus ATCC 29213. Here is the method: as §1
Data set [4] has as its system Enterococcus faecalis ATCC 29212. Kind of data set: Minimum Inhibitory Concentration (MIC) in LB media. Conditions: ATCC29212, read-out: Minimum Inhibitory Concentration E. faecalis ATCC 29212. Here is the method: as §1
The subject of data set [5] is Klebsiella pneumoniae ATCC 13883. Kind of data set: Minimum Inhibitory Concentration (MIC) in LB media. Conditions: ATCC13883, read-out: Minimum Inhibitory Concentration K. pneumoniae ATCC 13883. Here is the method:
as §1

The subject of data set [6] is Escherichia coli ATCC 25922. Kind of data set: Minimum Inhibitory Concentration (MIC) in LB media. Conditions: ATCC25922, read-out: Minimum Inhibitory Concentration E. coli ATCC 25922. Here is the method: as §1
Data set [7] addresses human ether a go-go related gene (hERG) K+ channel (Homo sapiens (Human), UniProt Q12809). Kind of data set: hERG inhibition assay, QPatch HTX automated electrophysiology. The conditions noted are these: CHO cell line stably expressing hERG, whole-cell patch clamp, maximum test concentration 300 μM. Here is the method:
The compounds were tested for inhibition of the human ether a go-go related gene (hERG) K+ channel using QPatch HTX automated electrophysiology. […] Compounds were solubilised to 100 mM in DMSO before dilution in HBPS to 300 μM. […] Electrophysiological recordings were made from a Chinese Hamster Ovary cell line stably expressing the full-length hERG potassium channel. Single cell ionic currents were measured in whole-cell patch clamp configuration at room temperature (21-23° C.) using the QPatch HTX platform (Sophion). Intracellular solution contained (mM): 120 KF, 20 KCl, 10 EGTA, 10 HEPES and was buffered to pH 7.3. […] Cells were clamped at a holding potential of −80 mV. Cells were stepped to +20 mV for 2 s then −40 mV for 3s before returning to the holding potential. This sweep was repeated 10 times at 10 s intervals. hERG currents were measured from the tail step and referenced to the holding current. Compounds were then incubated for 2 minutes prior to a second measurement of ion channel current using an identical pulse train.
On the technique in general: hERG is a cardiac potassium channel; its block is linked to QT prolongation.

Results on twelve compounds are retold here after patent US11590142B2, “Oxazolidinone antibiotic compounds and process of preparation” (Bugworks Research, Inc., priority 2018, dated 2023).

Molecules are shown by their SMILES. ≈ marks a conversion by molar mass, not a printed value.

Broadly, the IC50 is the concentration at which inhibition is half-maximal. Low values mean greater potency, high ones weaker potency.

human ether a go-go related gene (hERG) K+ channel, sequence (Q12809 whole entry): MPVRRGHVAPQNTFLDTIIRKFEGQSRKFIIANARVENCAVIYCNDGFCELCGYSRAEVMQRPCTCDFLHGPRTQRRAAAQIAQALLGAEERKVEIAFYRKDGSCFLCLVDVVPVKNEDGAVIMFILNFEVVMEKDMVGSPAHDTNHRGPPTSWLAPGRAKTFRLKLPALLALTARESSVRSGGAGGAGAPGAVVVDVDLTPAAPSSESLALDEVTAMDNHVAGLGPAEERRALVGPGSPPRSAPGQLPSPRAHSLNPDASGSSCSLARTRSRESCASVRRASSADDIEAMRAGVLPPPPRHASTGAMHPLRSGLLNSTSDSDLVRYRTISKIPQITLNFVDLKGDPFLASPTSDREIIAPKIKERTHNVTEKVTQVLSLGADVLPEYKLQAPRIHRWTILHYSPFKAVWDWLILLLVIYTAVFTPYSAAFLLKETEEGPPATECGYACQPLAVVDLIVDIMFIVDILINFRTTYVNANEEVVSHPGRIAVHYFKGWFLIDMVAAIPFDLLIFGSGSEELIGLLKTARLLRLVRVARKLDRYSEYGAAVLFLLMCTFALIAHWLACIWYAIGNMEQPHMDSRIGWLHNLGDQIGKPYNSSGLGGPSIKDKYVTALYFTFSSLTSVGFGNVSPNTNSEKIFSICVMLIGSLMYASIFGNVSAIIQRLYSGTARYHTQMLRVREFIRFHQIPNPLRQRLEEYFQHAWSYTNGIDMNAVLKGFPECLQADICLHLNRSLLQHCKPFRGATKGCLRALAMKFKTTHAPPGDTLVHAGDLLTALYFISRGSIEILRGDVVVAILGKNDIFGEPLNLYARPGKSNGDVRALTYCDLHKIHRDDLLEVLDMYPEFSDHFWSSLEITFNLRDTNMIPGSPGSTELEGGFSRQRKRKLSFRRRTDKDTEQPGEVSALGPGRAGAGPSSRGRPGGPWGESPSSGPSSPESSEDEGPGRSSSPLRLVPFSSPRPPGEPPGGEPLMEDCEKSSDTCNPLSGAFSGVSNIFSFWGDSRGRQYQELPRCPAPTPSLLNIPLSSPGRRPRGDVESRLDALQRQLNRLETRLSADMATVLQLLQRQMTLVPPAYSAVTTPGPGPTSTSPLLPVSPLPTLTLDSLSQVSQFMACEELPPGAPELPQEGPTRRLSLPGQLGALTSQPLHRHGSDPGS

Consider `Cn1c(=O)ccc2ncc(OCCNC[C@@H]3CN(c4ccc5c(n4)NC(=O)CO5)C(=O)O3)nc21` [Compound 6, (R)-6-(5-(((2-((5-methyl-6-oxo-5,6-dihydropyrido[2,3-b]pyrazin-3-yl)oxy)ethyl)amino)methyl)-2-oxooxazolidin-3-yl)-2H-pyrido[3,2-b][1,4]oxazin-3(4H)-one], for which the MIC in data set [1] is 0.13 µg/mL (≈ 0.278 µM); in data set [2], 2 µg/mL (≈ 4.28 µM); in data set [3], 0.13 µg/mL (≈ 0.278 µM); in data set [4], 0.25 µg/mL (≈ 0.535 µM); in data set [5] it was 0.25 µg/mL (≈ 0.535 µM); in data set [6], 0.13 µg/mL (≈ 0.278 µM). Also, half-maximal inhibition in data set [7] (IC50) was put at 60 µM.

For the compound `Cn1c(=O)cnc2ccc(OCCNC[C@H]3CN(c4cnc5c(n4)NC(=O)CS5)C(=O)O3)nc21` [Compound 13, (S)-5-(((2-((4-Methyl-3-oxo-3,4-dihydropyrido[2,3-b]pyrazin-6-yl)oxy)ethyl)amino)methyl)-3-(3-oxo-3,4-dihydro-2H-pyrazino[2,3-b][1,4]thiazin-6-yl)oxazolidin-2-one], the MIC in data set [1] is 0.03 µg/mL (≈ 0.0619 µM); in data set [2] it was 0.5 µg/mL (≈ 1.03 µM); in data set [3], not above 0.03 µg/mL; in data set [4], 0.1 µg/mL (≈ 0.206 µM); in data set [5], 0.03 µg/mL (≈ 0.0619 µM); in data set [6] it was 0.03 µg/mL (≈ 0.0619 µM).

As for `Cn1c(=O)cnc2ccc(OCCNC[C@@H]3CN(c4ccc5c(n4)NC(=O)CO5)C(=O)O3)nc21` [Compound 4, (R)-6-(5-(((2-((4-methyl-3-oxo-3,4-dihydropyrido[2,3-b]pyrazin-6-yl)oxy)ethyl)amino)methyl)-2-oxooxazolidin-3-yl)-2H-pyrido[3,2-b][1,4]oxazin-3(4H)-one], the MIC in data set [1] was 0.06 µg/mL (≈ 0.128 µM); in data set [2] it was 2 µg/mL (≈ 4.28 µM); in data set [3], 0.06 µg/mL (≈ 0.128 µM); in data set [4], 0.25 µg/mL (≈ 0.535 µM); in data set [5], 0.25 µg/mL (≈ 0.535 µM); in data set [6], 0.06 µg/mL (≈ 0.128 µM). For the same compound, in data set [7], inhibition was half-maximal at 38 µM (IC50).

With `CCn1c(=O)cnc2ccc(OCCNC[C@H]3CN(c4cnc5c(n4)NC(=O)CO5)C(=O)O3)nc21` [Compound 11, (S)-6-(5-(((2-((4-ethyl-3-oxo-3,4-dihydropyrido[2,3-b]pyrazin-6-yl)oxy)ethyl)amino)methyl)-2-oxooxazolidin-3-yl)-2H-pyrazino[2,3-b][1,4]oxazin-3(4H)-one], the MIC in data set [1] is 0.5 µg/mL (≈ 1.04 µM); in data set [2] it was 2 µg/mL (≈ 4.15 µM); in data set [3] it was 0.03 µg/mL (≈ 0.0622 µM); in data set [4] it was 1 µg/mL (≈ 2.07 µM); in data set [5], 0.5 µg/mL (≈ 1.04 µM); in data set [6] it was 0.125 µg/mL (≈ 0.259 µM).

Turning to `Cn1c(=O)cnc2cc(Cl)c(OCCNC[C@H]3CN(c4cnc5c(n4)NC(=O)CO5)C(=O)O3)nc21` [Compound 12, (S)-6-(5-(((2-((7-Chloro-4-methyl-3-oxo-3,4-dihydropyrido[2,3-b]pyrazin-6-yl)oxy)ethyl)amino)methyl)-2-oxooxazolidin-3-yl)-2H-pyrazino[2,3-b][1,4]oxazin-3(4H)-one], the MIC in data set [1] turned out to be 0.5 µg/mL (≈ 0.994 µM); in data set [2], 4 µg/mL (≈ 7.95 µM); in data set [3], 0.125 µg/mL (≈ 0.249 µM); in data set [4] it was 0.25 µg/mL (≈ 0.497 µM); in data set [5], 0.25 µg/mL (≈ 0.497 µM); in data set [6], 0.125 µg/mL (≈ 0.249 µM). The IC50 in data set [7] was 98 µM.

On to `Cn1c(=O)cnc2ccc(OCCNC[C@@H]3CN(c4cnc5c(n4)NC(=O)CO5)C(=O)O3)nc21` [Compound 8, (R)-6-(5-(((2-((4-methyl-3-oxo-3,4-dihydropyrido[2,3-b]pyrazin-6-yl)oxy)ethyl)amino)methyl)-2-oxooxazolidin-3-yl)-2H1-pyrazino[2,3-b][1,4]oxazin-3(4H)-one], for which the MIC in data set [1] was 0.5 µg/mL (≈ 1.07 µM); in data set [2], 1 µg/mL (≈ 2.13 µM); in data set [3], 0.125 µg/mL (≈ 0.267 µM); in data set [4] it was 0.5 µg/mL (≈ 1.07 µM); in data set [5], 0.25 µg/mL (≈ 0.534 µM); in data set [6] it was 0.06 µg/mL (≈ 0.128 µM). In data set [7], the IC50 is more than 300 µM.

`Cn1c(=O)cnc2cc(F)c(OCCNC[C@H]3CN(c4cnc5c(n4)NC(=O)CO5)C(=O)O3)nc21` [Compound 10, (S)-6-(5-(((2-((7-fluoro-4-methyl-3-oxo-3,4-dihydropyrido[2,3-b]pyrazin-6-yl)oxy)ethyl)amino)methyl)-2-oxooxazolidin-3-yl)-2H-pyrazino[2,3-b][1,4]oxazin-3(4H)-one]: the MIC in data set [1] amounted to 0.5 µg/mL (≈ 1.03 µM); in data set [2], 1 µg/mL (≈ 2.06 µM); in data set [3], 0.06 µg/mL (≈ 0.123 µM); in data set [4], 0.25 µg/mL (≈ 0.514 µM); in data set [5] it was 0.25 µg/mL (≈ 0.514 µM); in data set [6], 0.06 µg/mL (≈ 0.123 µM). Moreover, in data set [7], the 50% inhibitory concentration (IC50) was more than 300 µM.

Turning to `Cn1c(=O)cnc2ccc(OCCNC[C@H]3CN(c4ccc5c(n4)NC(=O)CO5)C(=O)O3)nc21` [Compound 3, (S)-6-(5-(((2-((4-methyl-3-oxo-3,4-dihydropyrido[2,3-b]pyrazin-6-yl)oxy)ethyl)amino)methyl)-2-oxooxazolidin-3-yl)-2H1-pyrido[3,2-b][1,4]oxazin-3(4H)-one], the MIC in data set [1] worked out at 0.06 µg/mL (≈ 0.128 µM); in data set [2] it was 2 µg/mL (≈ 4.28 µM); in data set [3] it was 0.06 µg/mL (≈ 0.128 µM); in data set [4] it was 0.25 µg/mL (≈ 0.535 µM); in data set [5], 0.25 µg/mL (≈ 0.535 µM); in data set [6], 0.06 µg/mL (≈ 0.128 µM). This compound also returned a half-inhibitory concentration (IC50) in data set [7] of 40 µM.

As to `Cn1c(=O)cnc2ccc(OCCNCCC3CN(c4ccc5c(n4)NC(=O)CO5)C(=O)O3)nc21` (stereo not shown) [Compound 1, 6-(5-(2-((2-((4-methyl-3-oxo-3,4-dihydropyrido[2,3-b]pyrazin-6-yl)oxy)ethyl)amino)ethyl)-2-oxooxazolidin-3-yl)-2H-pyrido[3,2-b][1,4]oxazin-3(4H)-one], the MIC in data set [1] worked out at 0.06 µg/mL (≈ 0.125 µM); in data set [2] it was 1 µg/mL (≈ 2.08 µM); in data set [3], 0.13 µg/mL (≈ 0.27 µM); in data set [4], 0.5 µg/mL (≈ 1.04 µM); in data set [5], 0.25 µg/mL (≈ 0.519 µM); in data set [6], 0.06 µg/mL (≈ 0.125 µM).

For `O=C(O)c1cn(C2CC2)c2cc(N3CCNCC3)c(F)cc2c1=O` [Ciprofloxacin, reference compound], the MIC in data set [1] stood at 0.4 µg/mL (≈ 1.21 µM); in data set [2] it was 0.1 µg/mL (≈ 0.302 µM); in data set [3], 0.4 µg/mL (≈ 1.21 µM); in data set [4], 0.4 µg/mL (≈ 1.21 µM); in data set [5], 0.05 µg/mL (≈ 0.151 µM); in data set [6], 0.012 µg/mL (≈ 0.0362 µM).

Turning to `Cn1c(=O)ccc2ncc(OCCNC[C@H]3CN(c4ccc5c(n4)NC(=O)CO5)C(=O)O3)nc21` [Compound 5, (S)-6-(5-(((2-((5-methyl-6-oxo-5,6-dihydropyrido[2,3-b]pyrazin-3-yl)oxy)ethyl)amino)methyl)-2-oxooxazolidin-3-yl)-2H1-pyrido[3,2-b][1,4]oxazin-3(4H)-one], the MIC in data set [1] is 0.25 µg/mL (≈ 0.535 µM); in data set [2], 4 µg/mL (≈ 8.56 µM); in data set [3], 0.25 µg/mL (≈ 0.535 µM); in data set [4], 0.5 µg/mL (≈ 1.07 µM); in data set [5] it was 0.25 µg/mL (≈ 0.535 µM); in data set [6], 0.25 µg/mL (≈ 0.535 µM). In addition, the half-inhibitory concentration (IC50) in data set [7] came to 82 µM.

`Cn1c(=O)ccc2ncc(OCCNCCC3CN(c4ccc5c(n4)NC(=O)CO5)C(=O)O3)nc21` (stereo not shown) [Compound 2, 6-(5-(2-((2-((5-methyl-6-oxo-5,6-dihydropyrido[2,3-b]pyrazin-3-yl)oxy)ethyl)amino)ethyl)-2-oxooxazolidin-3-yl)-2H-pyrido[3,2-b][1,4]oxazin-3(4H)-one]: the MIC is 0.06 µg/mL (≈ 0.125 µM) in data set [1]; 0.5 µg/mL (≈ 1.04 µM) in data set [2]; 0.06 µg/mL (≈ 0.125 µM) in data set [3]; 1 µg/mL (≈ 2.08 µM) in data set [4]; 0.25 µg/mL (≈ 0.519 µM) in data set [5]; 0.13 µg/mL (≈ 0.27 µM) in data set [6].
